Laboratory results as given in US12539292B2, “BRM targeting compounds and associated methods of use” (Arvinas Operations, Inc., priority 2018, dated 2026).
Like-named read-outs stand apart in the source and are kept apart here.

Molecular target: T1, BRM (Homo sapiens, UniProt P51531)
T1 construct: In-Cell Western Screen of BRM Degradation in SW1573 Cells; endogenous in cells; host or cells: SW1573
Test: In-cell Western screen of BRM degradation in SW1573 cells (Dmax and DC50)
Format: cell-based
Summary of the method: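 Adherent SW1573 cultures exposed to test compounds for 18-20 h were processed for in-cell Western after PFA fixation and detergent permeabilization. BRM degradation was reported as Dmax and DC50.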

[1] = BRM degradation, SW1573 cells, read-out: DC50
[2] = SW1573, % degraded, when tested at the top concentration of between 0.3 and 10 μM, read-out: BRM Dmax (%)
[3] = degradation of BRM, read-out: BRM DC50
[4] = BRM degradation, SW1573 cells, read-out: Dmax (% degraded)
[5] = BRM degradation, SW1573 cells, when tested at the top concentration of between 0.3 and 10 μM, read-out: Dmax (%) (% degraded)

T1 sequence (P51531 whole entry): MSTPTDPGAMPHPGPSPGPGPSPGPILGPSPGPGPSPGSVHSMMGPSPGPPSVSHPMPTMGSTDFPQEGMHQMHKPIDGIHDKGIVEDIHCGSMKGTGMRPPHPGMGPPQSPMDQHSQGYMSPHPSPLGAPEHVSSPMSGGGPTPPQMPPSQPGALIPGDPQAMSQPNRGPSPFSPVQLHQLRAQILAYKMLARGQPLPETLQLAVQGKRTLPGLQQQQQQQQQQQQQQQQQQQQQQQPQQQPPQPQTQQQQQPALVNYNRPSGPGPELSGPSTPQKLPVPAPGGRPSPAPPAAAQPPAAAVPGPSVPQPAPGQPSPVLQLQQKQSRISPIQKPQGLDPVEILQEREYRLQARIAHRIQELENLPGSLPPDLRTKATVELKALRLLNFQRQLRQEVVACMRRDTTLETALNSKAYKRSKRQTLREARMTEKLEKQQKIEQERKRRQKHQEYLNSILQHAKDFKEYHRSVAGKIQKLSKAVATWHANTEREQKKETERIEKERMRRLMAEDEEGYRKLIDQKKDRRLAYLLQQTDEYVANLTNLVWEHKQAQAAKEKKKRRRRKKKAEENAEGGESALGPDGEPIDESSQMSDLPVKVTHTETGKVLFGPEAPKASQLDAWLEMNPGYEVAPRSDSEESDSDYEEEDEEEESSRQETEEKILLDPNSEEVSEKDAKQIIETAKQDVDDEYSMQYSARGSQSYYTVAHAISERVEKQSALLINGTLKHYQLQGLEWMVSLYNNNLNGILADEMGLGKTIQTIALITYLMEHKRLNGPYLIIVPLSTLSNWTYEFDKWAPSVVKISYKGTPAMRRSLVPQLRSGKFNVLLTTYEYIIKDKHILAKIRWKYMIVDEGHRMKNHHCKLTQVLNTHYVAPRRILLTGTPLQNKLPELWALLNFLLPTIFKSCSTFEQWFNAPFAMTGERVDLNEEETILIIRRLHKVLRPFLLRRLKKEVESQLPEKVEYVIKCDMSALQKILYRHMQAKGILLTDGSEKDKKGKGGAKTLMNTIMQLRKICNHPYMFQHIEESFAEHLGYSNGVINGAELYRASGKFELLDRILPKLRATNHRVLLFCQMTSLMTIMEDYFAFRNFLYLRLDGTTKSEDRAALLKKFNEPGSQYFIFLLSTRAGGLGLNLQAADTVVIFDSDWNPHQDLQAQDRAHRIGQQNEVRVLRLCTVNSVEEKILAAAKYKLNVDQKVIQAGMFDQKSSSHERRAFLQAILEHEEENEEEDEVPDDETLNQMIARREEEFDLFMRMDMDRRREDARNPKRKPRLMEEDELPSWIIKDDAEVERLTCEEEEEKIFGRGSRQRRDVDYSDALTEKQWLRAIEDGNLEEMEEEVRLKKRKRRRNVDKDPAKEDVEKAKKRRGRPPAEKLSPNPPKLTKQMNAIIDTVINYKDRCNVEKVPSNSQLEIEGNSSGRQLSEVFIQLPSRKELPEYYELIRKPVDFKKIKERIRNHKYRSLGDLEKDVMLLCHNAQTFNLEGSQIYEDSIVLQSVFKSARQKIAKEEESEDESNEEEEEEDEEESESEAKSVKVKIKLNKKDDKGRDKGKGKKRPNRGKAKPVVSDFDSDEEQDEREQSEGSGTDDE

CC[C@H](NC(=O)[C@@H]1C[C@@H](O)CN1C(=O)C(c1cc(OCCN2CCC(O[C@H]3C[C@H](Oc4cc(N5C6CCC5CN(c5cc(-c7ccccc7O)nnc5N)C6)ccn4)C3)CC2)no1)C(C)C)c1ccc(-c2scnc2C)cc1 (stereo partly drawn) [compound 351, (2S,4R)-1-((2R)-2-(3-(2-(4-((1r,3R)-3-((4-(3-(3-amino-6-(2-hydroxyphenyl)pyridazin-4-yl)-3,8-diazabicyclo[3.2.1]octan-8-yl)pyridin-2-yl)oxy)cyclobutoxy)piperidin-1-yl)ethoxy)isoxazol-5-yl)-3-methylbutanoyl)-4-hydroxy-N-((S)-1-(4-(4-methylthiazol-5-yl)phenyl)propyl)pyrrolidine-2-carboxamide]
DC50 [1]: < 2.5 nM | Dmax (BRM degradation, SW1573 cells, tested at the top concentration of between 0.3 and 10 μM, read-out: Dmax (%) (% degraded)): > 75%

Cc1ncsc1-c1ccc([C@H](C)NC(=O)[C@@H]2C[C@@H](O)CN2C(=O)[C@@H](c2cc(N3CCC(CO[C@H]4C[C@H](Oc5cc(N6C7CCC6CN(c6cc(-c8ccccc8O)nnc6N)C7)ccn5)C4)CC3)no2)C(C)C)cc1 [compound 434, (2S,4R)-1-((2R)-2-(3-(4-(((1r,3R)-3-((4-(3-(3-amino-6-(2-hydroxyphenyl)pyridazin-4-yl)-3,8-diazabicyclo[3.2.1]octan-8-yl)pyridin-2-yl)oxy)cyclobutoxy)methyl)piperidin-1-yl)isoxazol-5-yl)-3-methylbutanoyl)-4-hydroxy-N-((S)-1-(4-(4-methylthiazol-5-yl)phenyl)ethyl)pyrrolidine-2-carboxamide]
Dmax [2]: > 75% | DC50 [3]: < 2.5 nM

Cc1ncsc1-c1ccc([C@@H](CN)NC(=O)[C@@H]2C[C@@H](O)CN2C(=O)[C@H](c2cc(OCCN3CCN(CCOc4cc(N5C6CCC5CN(c5cc(-c7ccccc7O)nnc5N)C6)ccn4)CC3)no2)C(C)C)cc1 [compound 255, (2S,4R)-N-((S)-2-amino-1-(4-(4-methylthiazol-5-yl)phenyl)ethyl)-1-((2S)-2-(3-(2-(4-(2-((4-(3-(3-amino-6-(2-hydroxyphenyl)pyridazin-4-yl)-3,8-diazabicyclo[3.2.1]octan-8-yl)pyridin-2-yl)oxy)ethyl)piperazin-1-yl)ethoxy)isoxazol-5-yl)-3-methylbutanoyl)-4-hydroxypyrrolidine-2-carboxamide]
DC50 [1]: > 30 nM

Cc1ncsc1-c1ccc([C@H](C)NC(=O)[C@@H]2C[C@@H](O)CN2C(=O)C(c2cc(OCCN3[C@H](C)C[C@H](O[C@H]4C[C@H](Oc5cc(N6C7CCC6CN(c6cc(-c8ccccc8O)nnc6N)C7)ccn5)C4)C[C@@H]3C)no2)C(C)C)cc1 (mixture of isomers) [compound 635, (2S,4R)-1-(2-(3-(2-((2S,4S,6R)-4-((1r,3R)-3-((4-(3-(3-amino-6-(2-hydroxyphenyl)pyridazin-4-yl)-3,8-diazabicyclo[3.2.1]octan-8-yl)pyridin-2-yl)oxy)cyclobutoxy)-2,6-dimethylpiperidin-1-yl)ethoxy)isoxazol-5-yl)-3-methylbutanoyl)-4-hydroxy-N-((S)-1-(4-(4-methylthiazol-5-yl)phenyl)ethyl)pyrrolidine-2-carboxamide]
DC50 [1]: < 2.5 nM | Dmax [4]: > 75%

CC(C)[C@H](C(=O)N1C[C@H](O)C[C@H]1C(=O)N[C@@H](C)c1ccc(-n2ccccc2=O)cc1)c1cc(OCCN2CCC(O[C@H]3C[C@H](Oc4cc(N5C6CCC5CN(c5cc(-c7ccccc7O)nnc5N)C6)ccn4)C3)CC2)no1 [compound 372, (2S,4R)-1-((2S)-2-(3-(2-(4-((1r,3S)-3-((4-(3-(3-amino-6-(2-hydroxyphenyl)pyridazin-4-yl)-3,8-diazabicyclo[3.2.1]octan-8-yl)pyridin-2-yl)oxy)cyclobutoxy)piperidin-1-yl)ethoxy)isoxazol-5-yl)-3-methylbutanoyl)-4-hydroxy-N-((S)-1-(4-(2-oxopyridin-1(2H)-yl)phenyl)ethyl)pyrrolidine-2-carboxamide]
Dmax [2]: > 75% | DC50 (target protein degradation, read-out: BRM DC50): > 30 nM

CC(C)[C@@H](C(=O)N1C[C@H](O)C[C@H]1C(=O)N[C@@H](C)c1ccc(C2(F)CC2)cc1)c1cc(N2CCC(CN3CCC(O[C@H]4C[C@H](Oc5cc(N6C7CCC6CN(c6cc(-c8ccccc8O)nnc6N)C7)ccn5)C4)CC3)CC2)no1 [compound 713, (2S,4R)-1-((2R)-2-(3-(4-((4-((1r,3r)-3-((4-(3-(3-amino-6-(2-hydroxyphenyl)pyridazin-4-yl)-3,8-diazabicyclo[3.2.1]octan-8-yl)pyridin-2-yl)oxy)cyclobutoxy)piperidin-1-yl)methyl)piperidin-1-yl)isoxazol-5-yl)-3-methylbutanoyl)-N-((S)-1-(4-(1-fluorocyclopropyl)phenyl)ethyl)-4-hydroxypyrrolidine-2-carboxamide]
DC50 [1]: 2.5 to 10 nM | Dmax [4]: > 75%

Cc1ncsc1-c1ccc([C@H](C)NC(=O)[C@@H]2C[C@@H](O)CN2C(=O)[C@@H](c2cc(OCC[C@@H]3CCN(C[C@H]4C[C@H](Oc5cc(N6C7CCC6CN(c6cc(-c8ccccc8O)nnc6N)C7)ccn5)C4)[C@@H](C)C3)no2)C(C)C)cc1 (racemic) [compound 582, (2S,4R)-1-((2R)-2-(3-(2-((2S,4R)-1-(((1r,3S)-3-((4-(3-(3-amino-6-(2-hydroxyphenyl)pyridazin-4-yl)-3,8-diazabicyclo[3.2.1]octan-8-yl)pyridin-2-yl)oxy)cyclobutyl)methyl)-2-methylpiperidin-4-yl)ethoxy)isoxazol-5-yl)-3-methylbutanoyl)-4-hydroxy-N-((S)-1-(4-(4-methylthiazol-5-yl)phenyl)ethyl)pyrrolidine-2-carboxamide]
Dmax (BRM degradation, SW1573 cells, Table 2D, read-out: **Dmax (%) (% degraded)): > 75% | DC50 (BRM degradation, SW1573 cells, Table 2D, read-out: *DC50): < 2.5 nM

CC(C)[C@H](C(=O)N1C[C@H](O)C[C@H]1C(=O)N[C@@H](C)c1ccc(C#N)cc1)c1cc(N2CCC(CN3CCC(O[C@H]4C[C@H](C#C[C@@H](C)n5cc(-c6cc(-c7ccccc7O)nnc6N)cn5)C4)CC3)CC2)no1 (single isomer, unassigned) [compound 697]
DC50 [1]: > 30 nM

Cc1ncsc1-c1ncc([C@@H](C)NC(=O)[C@@H]2C[C@@H](O)CN2C(=O)C(c2cc(OCCN3CCC(O[C@H]4C[C@H](Oc5cc(N6C7CCC6CN(c6cc(-c8ccccc8O)nnc6N)C7)ccn5)C4)CC3)no2)C(C)C)cc1F (stereo partly drawn) [compound 501, (2S,4R)-1-(2-(3-(2-(4-((1r,3r)-3-((4-(3-(3-amino-6-(2-hydroxyphenyl)pyridazin-4-yl)-3,8-diazabicyclo[3.2.1]octan-8-yl)pyridin-2-yl)oxy)cyclobutoxy)piperidin-1-yl)ethoxy)isoxazol-5-yl)-3-methylbutanoyl)-N-((R)-1-(5-fluoro-6-(4-methylthiazol-5-yl)pyridin-3-yl)ethyl)-4-hydroxypyrrolidine-2-carboxamide]
DC50 (BRM degradation, read-out: BRM DC50): < 2.5 nM | Dmax [2]: > 75%

Cc1ncsc1-c1ccc(CNC(=O)[C@@H]2C[C@@H](O)CN2C(=O)[C@H](c2cc(OCCOCCOCCOCCOCCn3cc(-c4cc(-c5ccccc5O)nnc4N)cn3)no2)C(C)C)cc1 [compound 18, (2S,4R)-1-[(2S)-2-[3-[(14-[4-[3-amino-6-(2-hydroxyphenyl)pyridazin-4-yl]-1H-pyrazol-1-yl]-3,6,9,12-tetraoxatetradecan-1-yl)oxy]-1,2-oxazol-5-yl]-3-methylbutanoyl]-4-hydroxy-N-[[4-(4-methyl-1,3-thiazol-5-yl)phenyl]methyl]pyrrolidine-2-carboxamide]
DC50 [1]: > 30 nM | Dmax [5]: 50 to 75%

Cc1ncsc1-c1ccc(CNC(=O)[C@@H]2C[C@@H](O)CN2C(=O)[C@H](c2cc(CCCOCCOCCOCCOCCn3cc(-c4cc(-c5ccccc5O)nnc4N)cn3)no2)C(C)C)cc1 [compound 25]
DC50 [1]: > 30 nM | Dmax [5]: > 75%

Cc1ncsc1-c1ccc([C@H](C)NC(=O)[C@@H]2C[C@@H](O)CN2C(=O)[C@@H](c2cc(OCCN3C4CC3CN(CCOc3cc(N5C6CCC5CN(c5cc(-c7ccccc7O)nnc5N)C6)ccn3)C4)no2)C(C)C)cc1 [compound 132, (2S,4R)-1-((2R)-2-(3-(2-(3-(2-((4-(3-(3-amino-6-(2-hydroxyphenyl)pyridazin-4-yl)-3,8-diazabicyclo[3.2.1]octan-8-yl)pyridin-2-yl)oxy)ethyl)-3,6-diazabicyclo[3.1.1]heptan-6-yl)ethoxy)isoxazol-5-yl)-3-methylbutanoyl)-4-hydroxy-N-((S)-1-(4-(4-methylthiazol-5-yl)phenyl)ethyl)pyrrolidine-2-carboxamide]
DC50 [1]: 2.5 to 10 nM | Dmax [5]: > 75%

Cc1ncsc1-c1ccc([C@@H](NC(=O)[C@@H]2C[C@@H](O)CN2C(=O)[C@@H](c2cc(OCCN3CCC(O[C@H]4C[C@H](Oc5cc(N6C7CCC6CN(c6cc(-c8ccccc8O)nnc6N)C7)ccn5)C4)CC3)no2)C(C)C)C(=O)N(C)C2CCC2)cc1 [compound 420, (2S,4R)-1-((2R)-2-(3-(2-(4-((1r,3R)-3-((4-(3-(3-amino-6-(2-hydroxyphenyl)pyridazin-4-yl)-3,8-diazabicyclo[3.2.1]octan-8-yl)pyridin-2-yl)oxy)cyclobutoxy)piperidin-1-yl)ethoxy)isoxazol-5-yl)-3-methylbutanoyl)-N-((R)-2-(cyclobutyl(methyl)amino)-1-(4-(4-methylthiazol-5-yl)phenyl)-2-oxoethyl)-4-hydroxypyrrolidine-2-carboxamide]
Dmax [2]: > 75% | DC50 [3]: < 2.5 nM
